Literature values in patent US6676966B1, “Extended release metformin hydrochloride formulations” (Intellipharmaceutics Corp., priority 2000, dated 2004).
Counter-ions that a name gives are not always drawn.

Conditions: single 850 mg immediate release tablet with food vs same tablet without food

lower AUC in plasma with food: 25%
lower peak concentration in plasma with food: ~40%
prolongation of time to peak plasma concentration with food: 35 min
SMILES: CN(C)C(=N)N=C(N)N [metformin, Metformin hydrochloride]
